We go through nine compounds from patent US10188634B2, “3-(3H-imidazo[4,5-C]pyridin-2-yl)-1 H-pyrazolo[4,3-B]pyridines and therapeutic uses thereof” (Samumed, LLC, priority 2015, dated 2019).

Each structure is given as a SMILES string. Some results are limits rather than exact numbers.

Experiment [1] concerns IL-6 in THP-1 cells. Kind of experiment: Inhibition of IL-6 in LPS-stimulated THP-1 human monocyte cells (HTRF). Format: cell-based. The note with it: IL-6 HTRF; for EC50: 500 ng/mL LPS, 22 hours; for inhibition at 10 µM: LPS, read-out: percent inhibition in brackets (given for EC50 >10 μM). The method, boiled down:
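THP-1 cells, serum-reduced (1% FBS) for 24 h, were exposed to compound (1:3, 10-point series from 10 μM; 0.1% DMSO) for 2 h, then 500 ng/mL LPS for 22 h at 37° C. Secreted IL-6 measured by HTRF (665/620 ratio), normalised to DMSO; EC50 by four-parameter fit, else % inhibition at 10 μM.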
On the technique in general: Time-resolved FRET reads energy transfer from a long-lived donor to a nearby acceptor.

The subject of experiment [2] is Wnt activity (Sp5-Luc reporter, human Sp5 promoter with eight TCF/LEF binding sites) in SW480 colon carcinoma cells. Kind of experiment: Screening assay for Wnt activity: Sp5-Luc reporter gene assay in SW480 cells. It is filed as cell-based. The note with it: for inhibition at 10 µM: read-out: percent inhibition at 10 μM (given for EC50 of >10 μM); for EC50: 10-point dose-response starting from 10 μM, overnight incubation. The procedure, abridged:
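SW480 cells stably carrying Sp5-Luc reporter (eight TCF/LEF sites) plated at 4,000/well in 1% FBS medium with compound (10-point 1:3 series from 10 μM, 0.1% DMSO) overnight at 37 °C. BrightGlo luminescence normalized to DMSO; EC50 by four-parameter fit, else % inhibition at 10 μM.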
On the technique in general: Reporter assays use an easily measured gene product as a stand-in for the process of interest.

In the case of `Cc1cn(-c2cncc3[nH]c(-c4n[nH]c5ccc(C6=CCNCC6)nc45)nc23)cn1` [Compound 590, 3-(7-(4-Methyl-1H-imidazol-1-yl)-3H-imidazo[4,5-c]pyridin-2-yl)-5-(1,2,3,6-tetrahydropyridin-4-yl)-1H-pyrazolo[4,3-b]pyridine], the half-maximal effective concentration (EC50) in experiment [1] and in experiment [2] was above 10 µM in each case. In addition, the inhibition at 10 µM in experiment [1] was found to be 11.5%; in experiment [2], 6.8%.
For the compound `Cc1cn(-c2cncc3[nH]c(-c4n[nH]c5ccc(-c6cncc(OCCN(C)C)c6)nc45)nc23)cn1` [Compound 599, N,N-Dimethyl-2-((5-(3-(7-(4-methyl-1H-imidazol-1-yl)-3H-imidazo[4,5-c]pyridin-2-yl)-1H-pyrazolo[4,3-b]pyridin-5-yl)pyridin-3-yl)oxy)ethan-1-amine], the EC50 in experiment [1] and in experiment [2] was above 10 µM each time. Also, the inhibition at 10 µM in experiment [1] is 22.5%; in experiment [2] it was 6.3%.
Regarding `CN1CCN(c2cncc3[nH]c(-c4n[nH]c5ccc(-c6cnccn6)nc45)nc23)CC1` [Compound 620, 3-(7-(4-Methylpiperazin-1-yl)-3H-imidazo[4,5-c]pyridin-2-yl)-5-(pyrazin-2-yl)-1H-pyrazolo[4,3-b]pyridine], in experiment [1], the EC50 was above 10 µM and the inhibition at 10 µM worked out at 30.6%. In experiment [2], the inhibition at 10 µM is 5.8% and the EC50 is above 10 µM.
For `O=C(CC1CCNCC1)Nc1cncc(-c2ccc3[nH]nc(-c4nc5c(-c6ccsc6)cncc5[nH]4)c3n2)c1` [Compound 629, 2-(Piperidin-4-yl)-N-(5-(3-(7-(thiophen-3-yl)-3H-imidazo[4,5-c]pyridin-2-yl)-1H-pyrazolo[4,3-b]pyridin-5-yl)pyridin-3-yl)acetamide], the EC50 in experiment [1] and in experiment [2] was above 10 µM each time. Moreover, the inhibition at 10 µM worked out at 45.5% in experiment [1] and 30.6% in experiment [2].
Consider `Cc1ncc(-c2ccc3[nH]nc(-c4nc5c(-c6ccoc6)cncc5[nH]4)c3n2)n1C` [Compound 641, 5-(1,2-Dimethyl-1H-imidazol-5-yl)-3-(7-(furan-3-yl)-3H-imidazo[4,5-c]pyridin-2-yl)-1H-pyrazolo[4,3-b]pyridine], for which, in experiment [1], the half-maximal effective concentration (EC50) is above 10 µM and the inhibition at 10 µM was found to be 8.9%. It took 0.911 µM to reach a half-maximal effect in experiment [2] (EC50).
`CC(C)CC(=O)Nc1cncc(-c2ccc3[nH]nc(-c4nc5c(-c6ccc(Cl)s6)cncc5[nH]4)c3n2)c1` [Compound 992, N-(5-(3-(7-(5-Chlorothiophen-2-yl)-3H-imidazo[4,5-c]pyridin-2-yl)-1H-pyrazolo[4,3-b]pyridin-5-yl)pyridin-3-yl)-3-methylbutanamide]: in experiment [1], the EC50 is above 10 µM and the inhibition at 10 µM stood at 29.8%. This compound also registered an EC50 in experiment [2] of 4.08 µM.
Regarding `CC(C)(C)C(=O)Nc1cncc(-c2ccc3[nH]nc(-c4nc5c(-c6ccc(Cl)s6)cncc5[nH]4)c3n2)c1` [Compound 998, N-(5-(3-(7-(5-Chlorothiophen-2-yl)-3H-imidazo[4,5-c]pyridin-2-yl)-1H-pyrazolo[4,3-b]pyridin-5-yl)pyridin-3-yl)pivalamide], the EC50 is above 10 µM in experiment [1] and 0.551 µM in experiment [2]. In addition, the inhibition at 10 µM in experiment [1] was 43%.
The matching figures for `Clc1ccc(-c2cncc3[nH]c(-c4n[nH]c5ccc(-c6cncc(CN7CCCC7)c6)nc45)nc23)s1` [Compound 1004, 3-(7-(5-Chlorothiophen-2-yl)-3H-imidazo[4,5-c]pyridin-2-yl)-5-(5-(pyrrolidin-1-ylmethyl)pyridin-3-yl)-1H-pyrazolo[4,3-b]pyridine]: above 10 µM, 3.79 µM and 29.8%.
Turning to `O=C(Nc1cncc(-c2ccc3[nH]nc(-c4nc5c(-c6ccc(Cl)s6)cncc5[nH]4)c3n2)c1)C1CCC1` [Compound 1011, N-(5-(3-(7-(5-Chlorothiophen-2-yl)-3H-imidazo[4,5-c]pyridin-2-yl)-1H-pyrazolo[4,3-b]pyridin-5-yl)pyridin-3-yl)cyclobutanecarboxamide], the EC50 in experiment [1] was above 10 µM; in experiment [2], 0.8 µM. The inhibition at 10 µM in experiment [1] stood at 32.4%.

By EC50 is commonly meant the concentration at which the effect is half-maximal. A lower EC50 goes with an effect from little substance. Usually inhibition stands for the relative decrease from the control value, in per cent.
